According to patent US4087421A, “Substituted benzodiazepines and method of use” (American Cyanamid Company, priority 1977, dated 1978):
Values joined by “and” are separate entries in the source; they are usually repeats but may differ in a detail not shown here. Identical values can stand only once.

Key:
[1] = "writhing syndrome" test for analgesic activity (phenyl p-quinone); type: in vivo, male Swiss albino mice; conditions: control approximately 30 per pair, active if 18 or less
Protocol: This method is based upon the reduction of the number of writhes following the intraperitoneal injection of one mg./kg. of body weight of phenyl p-quinone in male Swiss albino mice weighing 15-25 g. The syndrome is characterized by intermittent contractions of the abdomen, twisting and turning of the trunk, and extension of the hind legs beginning 3 to 5 minutes after injection of the phenyl p-quinone. The test compounds are administered orally at the indicated dose to groups of 2 mice each, 30 minutes before injection of the phenyl p-quinone.

[2] = reduction of spontaneous motor activity (Animax Activity Counter); type: in vivo; conditions: Rattus norvegicus, 5 min; oral, rats, 5 minute period; read-out: MDD50 (effective dose that causes a 50% reduction in motor activity)
Protocol: A useful test for anti-psychotic activity consists of measuring the reduction of spontaneous motor activity in animals.
Groups of 4 rats are treated orally with the test compound dissolved or suspended in starch vehicle at the maximum tolerated dose. At the estimated time of peak effect, the animals are placed singly into an Animax Activity Counter and the activity of each rat is recorded over a 5 minute period. The activity counts are compared to historical or parallel control values to determine significant increased or decreased locomotor activity.

[3] = Discrete Trial Conditioned Avoidance Test; type: in vivo, male Long-Evans rats; conditions: Rattus norvegicus, read-out: ED50 (reduces avoidance response by 50% as compared to controls)
Protocol: In this test the compounds are administered orally to male Long-Evans rats in a universal starch vehicle. The rats have been pre-conditioned to make a 70% avoidance response. The rats are placed in individual cages and a warning tone is sounded every 20 seconds. Each rat has the opportunity to press a bar which, if done within 5 seconds, prevents an electric shock through the grid floor of the cage and is termed an avoidance response. Each rat is given 50 trials and a score of avoidance responses is kept. The drug is administered at various dose levels. […]

[4] = Inhibition of tetrabenazine induced depression of exploratory behavior in mice; type: in vivo; conditions: for Number Responded/Number Treated: intraperitoneally or orally, 1 h before tetrabenazine 30 mg/kg
Protocol: Varying doses of the test compounds are administered intraperitoneally or orally to 5 mice one hour before the administration of tetrabenazine hexamate at an intraperitoneal dose of 30 mg/kg which is known to depress markedly the exploratory behavior of normal mice. Thirty minutes later the mice are tested for their exploratoy behavior. Individual mice are placed in the center of a horizontal disc. Inhibition of the depression induced by tetrabenazine is considered present if the mice perform one or more of the following actions within 10 seconds after being placed on the disc:
(1) Animals move to the edge of the disc and pear over the side.
(2) Animals move 180° in place.
(3) Animals display a head movement of 90° immediately followed by a head movement in the opposite direction of at least 45°.
Administration of the test compounds to additional groups of 5 mice is repeated, the numbers of individual animals showing an anti-depressant response (normal exploratory behavior) is recorded and the results are analyzed by the following scheme (statistically standardized; significant P = less than 0.05).
The results from several dose levels (acceptance in at least two sequential test procedures) are then used to establish the Range of Active Doses.

[5] = Prevention of reserpine-induced hypothermia in rats; type: in vivo; conditions: for ED50: Rattus norvegicus, oral, dose column in mg/kg, read-out: ED50 (95% C.L.)
Protocol: Groups of 5 rats were treated orally with graded doses of the test compounds. One hour later the animals were treated with reserpine (solubilized in propylene glycol and citric acid) at a dose of 5 mg/kg intraperitoneally. Rectal temperatures were measured using a YSI Telethermometer. Temperatures were recorded just prior to treatment, one hour later just prior to reserpine administration and at hourly intervals following reserpine administration for 5 hours. […]

[6] = Enhancement of yohimbine lethality in mice; type: in vivo; conditions: yohimbine 34 mg/kg
Protocol: The test compounds were administered intraperitoneally, at various dose levels, to groups of 10 mice. One hour later all mice received yohimbine at a dose (34 mg/kg) estimated to have a lethal effect in 4% of the mice. Deaths were recorded 18 to 24 hours later.

[7] = modified Randall and Selitto analgesic test, brewers yeast inflamed paw; type: in vivo, rats; conditions: 200 mg/Kg oral; two hours after yeast; active if T/C ≥ 1.37
Protocol: To determine analgesic activity, a modification of the method of Randall and Selitto [Arch. Int. […] This test measures the pain threshold of rats whose paws are made sensitive to pressure by the injection of 0.1 ml. of a 20% aqueous suspension of brewers yeast into the plantar surface of the left hind paw. Constantly increasing force (16 g/second) is applied to the swollen paw using an Analgesy Meter, Ugo Basile. The pressure is cut off at 250 g. of force when there is no response (sudden struggle or vocalization). […] Pressure-pain thresholds are always recorded two hours after administration of Brewers' yeast. Test compounds are administered at the same time as the yeast, at an oral dose of 200 mg/Kg. Ratios of treated (T)/control (C) reaction thresholds are calculated as estimates of analgesic efficacy (degree of analgesia obtainable).

reversible ptosis test = type: in vivo; conditions: oral, rats
Protocol: A useful test for anti-psychotic activity consists of measuring ptosis in animals.
Ptosis is defined as closure of the palpebral aperture (eyelid) greater than 70%. The compounds to be tested were administered orally to groups of 10 rats each. Periodically after treatment the rats were gently placed on the cage top and examined for 90 seconds for signs of ptosis. This manipulation eliminates spontaneous ptosis. The rats were then dropped from a height of about 18 inches (exteroceptive stimulation) onto the cage top to test for reversibility of ptosis. Reversible ptosis is defined as less than 70% closure of the palpebral aperture for longer than one minute after the exteroceptive stimulation and is indicative of neuroleptic activity of the drug administered.

CN1CCN(C2=Nc3ccccc3N(C)c3cscc32)CC1 [4-Methyl-10-(4-methyl-1-piperazinyl)-4H-thieno[3,4-b][1,5]benzodiazepine]
No. of Writhes Per Pair ([1]; 50 mg/kg oral): 0
ED50 [2]: 12 mg/kg
ED50 ([3]; oral, male Long-Evans rats): 17 mg/kg
Number Responded/Number Treated ([4]; 0.78 mg/kg): 1/10
Number Responded/Number Treated ([4]; 1.56 mg/kg): 3/10
Number Responded/Number Treated ([4]; 3.13 mg/kg): 6/10
Number Responded/Number Treated ([4]; 6.25 mg/kg): 6/10
Number Responded/Number Treated ([4]; 12.5 mg/kg): 7/10
Number Responded/Number Treated ([4]; 25.0 mg/kg): 8/10
ED50 ([4]; Mus musculus, calculated by method of Finney, dose column in mg/kg, read-out: ED50 (95% C.L.)): 4.2 mg/kg
Percent of Animals Showing > Two Standard Deviations in Rectal Temperature Over Control Means ([5]; 0.20 mg/kg oral, 2 hours after reserpine): 0%
Percent of Animals Showing > Two Standard Deviations in Rectal Temperature Over Control Means ([5]; 0.20 mg/kg oral, 3 hours after reserpine): 0%
Percent of Animals Showing > Two Standard Deviations in Rectal Temperature Over Control Means ([5]; 0.20 mg/kg oral, 4 hours after reserpine): 0%
Percent of Animals Showing > Two Standard Deviations in Rectal Temperature Over Control Means ([5]; 0.20 mg/kg oral, 5 hours after reserpine): 0%
Percent of Animals Showing > Two Standard Deviations in Rectal Temperature Over Control Means ([5]; 0.39 mg/kg oral, 2 hours after reserpine): 0%
Percent of Animals Showing > Two Standard Deviations in Rectal Temperature Over Control Means ([5]; 0.39 mg/kg oral, 3 hours after reserpine): 0%
Percent of Animals Showing > Two Standard Deviations in Rectal Temperature Over Control Means ([5]; 0.39 mg/kg oral, 4 hours after reserpine): 0%
Percent of Animals Showing > Two Standard Deviations in Rectal Temperature Over Control Means ([5]; 0.39 mg/kg oral, 5 hours after reserpine): 0%
Percent of Animals Showing > Two Standard Deviations in Rectal Temperature Over Control Means ([5]; 0.78 mg/kg oral, 2 hours after reserpine): 33%
Percent of Animals Showing > Two Standard Deviations in Rectal Temperature Over Control Means ([5]; 0.78 mg/kg oral, 3 hours after reserpine): 7%
Percent of Animals Showing > Two Standard Deviations in Rectal Temperature Over Control Means ([5]; 0.78 mg/kg oral, 4 hours after reserpine): 7%
Percent of Animals Showing > Two Standard Deviations in Rectal Temperature Over Control Means ([5]; 0.78 mg/kg oral, 5 hours after reserpine): 27%
Percent of Animals Showing > Two Standard Deviations in Rectal Temperature Over Control Means ([5]; 1.56 mg/kg oral, 2 hours after reserpine): 100%
Percent of Animals Showing > Two Standard Deviations in Rectal Temperature Over Control Means ([5]; 1.56 mg/kg oral, 3 hours after reserpine): 40%
Percent of Animals Showing > Two Standard Deviations in Rectal Temperature Over Control Means ([5]; 1.56 mg/kg oral, 4 hours after reserpine): 0%
Percent of Animals Showing > Two Standard Deviations in Rectal Temperature Over Control Means ([5]; 1.56 mg/kg oral, 5 hours after reserpine): 60%
Percent of Animals Showing > Two Standard Deviations in Rectal Temperature Over Control Means ([5]; 3.13 mg/kg oral, 2 hours after reserpine): 50%
Percent of Animals Showing > Two Standard Deviations in Rectal Temperature Over Control Means ([5]; 3.13 mg/kg oral, 3 hours after reserpine): 30%
Percent of Animals Showing > Two Standard Deviations in Rectal Temperature Over Control Means ([5]; 3.13 mg/kg oral, 4 hours after reserpine): 30%
Percent of Animals Showing > Two Standard Deviations in Rectal Temperature Over Control Means ([5]; 3.13 mg/kg oral, 5 hours after reserpine): 20%
Percent of Animals Showing > Two Standard Deviations in Rectal Temperature Over Control Means ([5]; 6.25 mg/kg oral, 2 hours after reserpine): 80%
Percent of Animals Showing > Two Standard Deviations in Rectal Temperature Over Control Means ([5]; 6.25 mg/kg oral, 3 hours after reserpine): 80%
Percent of Animals Showing > Two Standard Deviations in Rectal Temperature Over Control Means ([5]; 6.25 mg/kg oral, 4 hours after reserpine): 80%
Percent of Animals Showing > Two Standard Deviations in Rectal Temperature Over Control Means ([5]; 6.25 mg/kg oral, 5 hours after reserpine): 0%
Percent of Animals Showing > Two Standard Deviations in Rectal Temperature Over Control Means ([5]; 12.5 mg/kg oral, 2 hours after reserpine): 100%
Percent of Animals Showing > Two Standard Deviations in Rectal Temperature Over Control Means ([5]; 12.5 mg/kg oral, 3 hours after reserpine): 100%
Percent of Animals Showing > Two Standard Deviations in Rectal Temperature Over Control Means ([5]; 12.5 mg/kg oral, 4 hours after reserpine): 100%
Percent of Animals Showing > Two Standard Deviations in Rectal Temperature Over Control Means ([5]; 12.5 mg/kg oral, 5 hours after reserpine): 20%
ED50 ([5]; 2 hours after reserpine): 1.6 mg/kg
ED50 ([5]; 3 hours after reserpine): 2.9 mg/kg
ED50 ([5]; 4 hours after reserpine): 3.5 mg/kg
Number Dead/Number Treated ([6]; 10 mg/kg intraperitoneal, 18 hours): 3/10
Number Dead/Number Treated ([6]; 10 mg/kg intraperitoneal, 24 hours): 8.10
Number Dead/Number Treated ([6]; 20 mg/kg intraperitoneal, 18 hours): 6/10
Number Dead/Number Treated ([6]; 20 mg/kg intraperitoneal, 24 hours): 8/10
Number Dead/Number Treated ([6]; 40 mg/kg intraperitoneal, 18 hours): 4/10
Number Dead/Number Treated ([6]; 40 mg/kg intraperitoneal, 24 hours): 8/10

CN(C)CCCN1c2ccccc2Sc2ccc(Cl)cc21 [Chlorpromazine, reference compound]
ED50 ([3]; po): 9 mg/kg

CN1CCN(C2=Nc3ccccc3Nc3cscc32)CC1 [10-(4-Methyl-1-piperazinyl)-4H-thieno[3,4-b][1,5]benzodiazepine]
No. of Writhes Per Pair ([1]; 6.25 mg/kg oral): 4 and 2
Ratio T/C (treated/control reaction thresholds) [7]: 1.57
ED50 [2]: 6.1 mg/kg
ED50 (dose estimated to create reversible ptosis in 50% of the animals) (reversible ptosis test): 13 mg/kg
ED50 ([3]; oral, male Long-Evans rats): 7 mg/kg

CN1CCN(C2=Nc3cc(Cl)ccc3N(C)c3cscc32)CC1.[O-][Cl+3]([O-])([O-])O.[O-][Cl+3]([O-])([O-])O [7-Chloro-4-methyl-10-(4-methyl-1-piperazinyl)-4H-thieno[3,4-b][1,5]benzodiazepine diperchlorate]
Ratio T/C (treated/control reaction thresholds) [7]: 1.55
ED50 [2]: 25 mg/kg

CN1CCN(C2=Nc3cc(Cl)ccc3Nc3cscc32)CC1.[O-][Cl+3]([O-])([O-])O.[O-][Cl+3]([O-])([O-])O [7-Chloro-10-(4-methyl-1-piperazinyl)-4H-thieno[3,4-b][1,5]benzodiazepine diperchlorate]
No. of Writhes Per Pair ([1]; 1.6 mg/kg oral): 1 and 2
ED50 [2]: 20 mg/kg
ED50 (dose estimated to create reversible ptosis in 50% of the animals) (reversible ptosis test): 10 mg/kg
